Data on four compounds can be found in US20260207624A1, “COADMINISTRATION OF ESTROGEN WITH ESTROGEN RECEPTOR MODULATOR OR DEGRADER OR ER TARGETED PROTAC FOR THE TREATMENT OF ESTROGEN RESPONSIVE CANCERS” (Duke University, priority 2022, published 2026).

One data set concerns BPD6 melanoma cells. In words: BPD6 melanoma tumor growth in ovariectomized mice receiving placebo or E2. The class given is in vivo, mouse. To be noted: BPD6 tumors. How it is done:
(§1) Prior to implantation into animals, BPD6, E0771, and A7C11 cells were cultured in DMEM media supplemented with 8% fetal bovine serum, non-essential amino acids and sodium pyruvate. Cells were trypsinized and injected in phosphate buffered saline.
(§2) For all experiments, mice were ovariectomized under anesthesia at 7 weeks of age and were provided placebo or estrogen (2.72 mcg/mL) treatment in drinking water throughout the remainder of the experiment. 7 to 10 days after surgery 0.5×10^6 BPD6melanoma cells or E0771 (0.2×10^6) or A7C 11 (0.4×10^5) mammary cancer cells per mouse were injected subcutaneously (BPD6) or orthotopically (A7C11 or E0771) into the axial mammary gland. Tumor growth was monitored by caliper measurement at least 3× weekly and was calculated as L×W2×0.5. For those mice receiving treatment with SERDs, mice were randomized to treatment 2 days after tumor implantation. 3574 (camizestrant) and 3964 were administered PO QD (by mouth every day) formulated in 5% DMSO/20% hydroxypropyl-b-cyclodextrin. Fulvestrant was administered SC Q5D in 10% DMSO/95% corn oil.
(§3) At the conclusion of tumor measurement (approximately 2 weeks or when tumor reached 1.5-2 cm^3 volume), mice were euthanized by CO2 exposure followed by decapitation. Uteri were removed at necropsy and weighed as a measure of estrogen stimulation.
(§4) To further explore the role of brain-expressed ER in tumor growth in the periphery, 2 SERDs were used with unique pharmacokinetics. […] ER-negative BPD6 melanoma cells were implanted into ovariectomized mice receiving either placebo or estradiol (E2) treatment in drinking water. After 48 hours, mice were randomized to receive vehicle (veh) or selective estrogen receptor degrader 3574 (10 mg/kg po qd; by mouth every day). Average tumor volume +/−SEM at each day of measurement was determined. Significance (p<0.05) was determined by 2-way ANOVA followed by Tukey's multiple comparison test. […] Treatment with anti-estrogens reversed this estradiol stimulation of tumor growth. E2 treated groups are included FIGS. 3A-3B.
To further explore the relationship between brain exposure to SERDs and tumor response, a second melanoma experiment was conducted in which BPD6 tumors were implanted into ovariectomized mice receiving vehicle or estradiol treatment. These groups were further subdivided to receive vehicle or treatment with 25, 50, or 100 mg/kg fulvestrant.

A short description of data set [1]: Brain penetration of the SERDs (pharmacokinetics). To be noted: stated as a property of the SERD, no test described.
A further data set deals with A7C11 mammary tumors. Kind of data set: A7C11 mammary tumor growth in C57BL6 mice receiving placebo or estradiol. It is filed as in vivo, mouse. The conditions noted are these: for effect on tumor growth, fulvestrant alone: mice lacking estrogen exposure. Here is the method: FIGS. 11a-11b. […] 2 days later mice were subdivided to receive treatment with vehicle or fulvestrant (25, 50 or 100 mg/kg sc q5d). Average tumor volume throughout treatment (FIG. 11A) and uterine weight (FIG. 11B) at necropsy are presented. Placebo and E2+Veh groups in (FIG. 11A) are common between graphs to facilitate comparison. * p<0.05, 2-way (FIG. 11A) or 1-way (FIG. 11B) ANOVA followed by Tukey multiple comparison test. […]
as §1
as §2, with “[…]. […]” for “oil.”

The subject of a further data set is E0771 mammary tumors. Kind of data set: E0771 mammary tumor growth in ovariectomized mice receiving placebo or E2. The class given is in vivo, mouse. Here is the method:
as §1, §2, §3
Analogous to the experiment in Example 4, E0771 mammary tumors were implanted in ovariectomized mice receiving E2 or placebo treatment.

For a further data set, the system named is BPD6 melanoma tumors. In words: BPD6 tumor growth in mice with ER ablated in macrophages (LysMCre+) or littermate controls. The class given is in vivo, mouse. How it is done: FIG. 5. TUMOR GROWTH IS REPRESSED WITH ESTROGEN AND A BRAIN-EXCLUDED SERD. FIG. 5 is a graph of tumor growth for BPD6 tumors with or without ER for the various indicated drug treatments. […] An analogous experiment to that presented in FIGS. 2A-2B and FIGS. 3A-3B was conducted in mice in which ER expression in macrophages was ablated using a promoter (LysM) to drive expression of the Cre enzyme to delete this receptor specifically in this cell type in mice having a floxed allele of ER. BPD6 melanoma tumors were implanted subcutaneously into Cre+ (ER ablated in macrophage) or littermate (LM, phenotypically wild type) mice that had been ovariectomized and then assigned to placebo or E2 treatment.
as §2
It was previously determined that for some cancer subtypes, including melanoma, one mechanism by which estrogens modulate tumor growth is by promoting a pro-tumor anti-inflammatory M2-like phenotype in the tumor infiltrating macrophages. Using a genetic model employing Cre-Lox technology to specifically delete estrogen receptor in myeloid cells (including macrophages), it was previously determined that loss of estrogen receptor expression in this immune cell population results in the loss of estrogen modulation of tumor growth in these tumors. […] BOD6 tumors were implanted in ovariectomized ERflox/flox/LysMCre+ or ERflox/flox mice that received placebo or estradiol treatment. Mice were further randomized to receive vehicle or SERD 3574 (10 mg/kg po qd; by mouth every day). Average tumor volume +/−SEM was determined. Significance (p<0.05) was determined by 2-way ANOVA followed by Tukey's multiple comparison test.

For a further data set, the system named is uterus. Kind of data set: Uterine wet weight at necropsy as measure of estrogen stimulation. It is filed as in vivo, mouse. How it is done: as §2, §3, §4
Setting [2] is: Cre- littermate control (LM) mice of the brain-ERKO experiment, E2 in drinking water.

Entries after “also recorded” stand apart in the source; their conditions may differ.

For `C[C@@H]1Cc2c(ccc3[nH]ncc23)[C@@H](c2ccc(NC3CN(CCCF)C3)cn2)N1CC(F)(F)F` [compound 3574, camizestrant], in the data set on BPD6 melanoma cells (3574 10 mg/kg po qd together with E2, 10 mg/kg), the “effect on E2 induced tumor growth” value was “suppressed tumor growth below that observed in the placebo/vehicle treated control; also recorded: reversed E2 induced tumor growth, but in fact significantly repressed tumor growth as compared to placebo treatment alone”. For the same compound, the “effect on tumor growth, SERD alone” value is “without effect on tumor growth” in the data set with BPD6 melanoma cells (placebo treated (no E2) mice, 3574 10 mg/kg po qd) and “did not impact tumor growth” in the data set on A7C11 mammary tumors (animals lacking estrogen exposure (FIGS. 12B-12D)). In addition, the brain penetration result in data set [1] was “brain excluded”. For the same compound, the “effect on tumor growth, SERD together with estrogen” value in the data set with A7C11 mammary tumors (estradiol treated mice (FIGS. 12B-12D)) is given as “further repressed tumor growth”. Moreover, in the data set on E0771 mammary tumors (E2-treated mice, 3574 (10 mg/kg)), the “effect on E2 stimulation of tumor growth” value was “reversed E2 stimulation of tumor growth”. In addition, the “effect on tumor growth vs Cre+ mice receiving E2 alone” value in the data set with BPD6 melanoma tumors (Cre+ mice, 3574 10 mg/kg po qd and E2 together) is listed as “significantly inhibited tumor growth”. Also, the “effect on growth of tumors, SERD alone” value with BPD6 melanoma tumors (placebo treated Cre+ mice, 3574 10 mg/kg po qd) was “did not affect the growth of tumors”. In addition, the “effect on E2 stimulation of the uterus (post-mortem uterine wet weight)” value in the data set with uterus (E0771 tumor bearing mice, all doses of the SERD) is recorded as “reversed E2 stimulation of the uterus”. In the data set with uterus (SERD with E2, BPD6 tumor bearing ovariectomized mice), the “effect on E2 stimulation of uterine wet weight” value is reported as “reversed E2 stimulation of uterine wet weight”. Moreover, the “effect on uterine weight, SERD alone (ER agonist activity)” value with uterus (placebo together with SERD, BPD6 tumor bearing ovariectomized mice) is “did not affect uterine weight”.
For `C[C@]12CC[C@@H]3c4ccc(O)cc4CC[C@H]3[C@@H]1CC[C@@H]2O` [E2, 17β-estradiol], the “effect of E2 on tumor growth vs placebo treated control” value with BPD6 melanoma cells (setting [2]), in the data set on A7C11 mammary tumors (setting [2]) and in the data set with E0771 mammary tumors (setting [2]) was “accelerated the growth of the tumors” in each case. Besides, the “increase in tumor growth as compared to placebo/vehicle treatment” value with BPD6 melanoma cells (ovariectomized wild-type mice, agent alone (FIG. 2B)) was 3 fold. In addition, the “effect on tumor growth” value with A7C11 mammary tumors (estradiol (2.72 mcg/mL drinking water) and vehicle co-administered) is “increase in A7C11 tumor growth”. Besides, the “tumor volume relative to placebo control” value in the data set with E0771 mammary tumors (E2 treatment alone (FIG. 4A)) was “approximately 2 fold”. Also, the “effect of E2 on tumor growth” value in the data set on BPD6 melanoma tumors (Cre+ mice (ER ablated in macrophage)) is “without significant effect on tumor growth”. Further, in the data set on BPD6 melanoma tumors (Cre- LM control mice, E2 treatment), the “tumor volume as compared to the placebo control” value worked out at 2 fold. In addition, the “increase in uterine wet weight” value with uterus (estrogen treatment vs placebo, BPD6 tumor bearing ovariectomized mice (FIG. 2A)) is listed as roughly 10 fold.
Take `C[C@]12CC[C@@H]3c4ccc(O)cc4C[C@@H](CCCCCCCCC[S+]([O-])CCCC(F)(F)C(F)(F)F)[C@H]3[C@@H]1CC[C@@H]2O` (stereo partly drawn) [fulvestrant]: the “effect on E2 stimulation of tumor growth” value in the data set with BPD6 melanoma cells (E2-treated mice, fulvestrant 25, 50, or 100 mg/kg) was “reversed E2 stimulation of tumor growth”. Also, the “effect on tumor growth, fulvestrant alone” value with BPD6 melanoma cells (placebo treated mice, fulvestrant 100 mg/kg) is on record as “growth similar to that of the estrogen/vehicle control; also recorded: induced tumor growth itself”; in the data set on A7C11 mammary tumors (25 mg/kg fulvestrant sc q5d), “dose not affect A7C11 tumor growth”; with A7C11 mammary tumors (50 or 100 mg/kg fulvestrant sc q5d) it was “tumor growth comparable to that observed for the estrogen control group”. Besides, in the data set on A7C11 mammary tumors (estradiol treated mice, 25, 50, or 100 mg/kg fulvestrant), the “effect on estrogen induction of tumor growth” value was “similarly inhibited estrogen induction of A7C11 tumor growth”. Further, in the data set with uterus (A7C11 tumor bearing mice, fulvestrant 25, 50, or 100 mg/kg sc q5d), the “effect on estrogen-dependent increases in uterine weight” value was “similarly repressed estrogen-dependent increases in uterine weight”.
Consider `Oc1ccc2c(c1)CC[C@H](c1ccccc1)[C@@H]2c1ccc(OCCN2CCCC2)cc1` [lasofoxifene], for which the “effect on tumor growth as compared to the placebo/vehicle control group” value in the data set with A7C11 mammary tumors (3 mg/kg lasofoxifene po qd co-administered with estradiol) is “repression of tumor growth”.
